{"source": "paper PMC4924682", "about": "“Monoamine oxidase A (MAO A) inhibitors decrease glioma progression” (Oncotarget, 2016)", "key": {"[1]": {"target": "T1, Monoamine Oxidase A (MAO A) (Homo sapiens, UniProt P21397)", "T1 construct": "gene MAOA", "T1 sequence (P21397 1-527)": "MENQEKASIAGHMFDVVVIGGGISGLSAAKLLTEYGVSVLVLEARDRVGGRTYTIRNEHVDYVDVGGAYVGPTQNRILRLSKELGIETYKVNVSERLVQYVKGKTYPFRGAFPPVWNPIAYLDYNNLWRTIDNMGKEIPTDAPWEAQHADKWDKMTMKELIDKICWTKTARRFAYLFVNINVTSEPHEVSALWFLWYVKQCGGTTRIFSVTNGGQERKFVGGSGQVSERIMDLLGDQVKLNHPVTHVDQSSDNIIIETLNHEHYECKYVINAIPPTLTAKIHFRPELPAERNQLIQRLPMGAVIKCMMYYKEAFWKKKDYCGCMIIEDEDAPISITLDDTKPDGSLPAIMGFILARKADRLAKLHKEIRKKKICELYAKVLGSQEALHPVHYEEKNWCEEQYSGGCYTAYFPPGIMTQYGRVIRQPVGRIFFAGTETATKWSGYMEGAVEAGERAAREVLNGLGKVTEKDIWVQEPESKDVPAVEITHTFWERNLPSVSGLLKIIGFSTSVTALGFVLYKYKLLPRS", "assay": "radioassay of […]-5-HT turnover in U251S and U251R human glioma cells", "format": "cell-based"}, "[2]": {"target": "T2, Monoamine Oxidase A (MAO A) (Mus musculus, UniProt Q64133)", "T2 construct": "gene Maoa", "T2 sequence (Q64133 1-526)": "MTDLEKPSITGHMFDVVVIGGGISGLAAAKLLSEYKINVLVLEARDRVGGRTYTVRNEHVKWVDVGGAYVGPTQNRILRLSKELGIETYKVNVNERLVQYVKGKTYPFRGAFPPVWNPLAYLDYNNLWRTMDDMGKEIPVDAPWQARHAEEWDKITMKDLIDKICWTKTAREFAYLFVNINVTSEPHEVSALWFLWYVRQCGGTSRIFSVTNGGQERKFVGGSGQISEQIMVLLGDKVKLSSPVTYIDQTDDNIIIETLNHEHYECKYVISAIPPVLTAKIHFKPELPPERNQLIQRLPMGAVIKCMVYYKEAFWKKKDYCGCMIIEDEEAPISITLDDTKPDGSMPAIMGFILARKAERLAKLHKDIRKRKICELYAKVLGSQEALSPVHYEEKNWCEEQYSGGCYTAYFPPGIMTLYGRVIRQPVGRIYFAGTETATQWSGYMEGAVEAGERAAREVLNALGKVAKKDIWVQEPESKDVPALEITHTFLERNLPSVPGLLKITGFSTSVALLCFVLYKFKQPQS", "assay": "radioassay of […]-5-HT turnover in GL26 mouse glioma cells", "format": "cell-based"}}, "data": [{"smiles": "NCCc1c[nH]c2ccc(O)cc12", "note": "[serotonin]", "values": [{"measurement": "radioassay of 14C-5-HT turnover in U251S and U251R human glioma cells", "setting": "[1]", "value": "MAO A catalytic activity was determined in human and mouse glioma cell lines using serotonin as the substrate"}, {"measurement": "radioassay of 14C-5-HT turnover in GL26 mouse glioma cells", "setting": "[2]", "value": "MAO A catalytic activity was determined in human and mouse glioma cell lines using serotonin as the substrate"}]}]}
